≈ marks a conversion by molar mass, not a printed value. Each block holds one compound with its values, some of them ahead of it. Where a SMILES comes first, the peptide text is derived from it. Bridges are numbered along the chain shown (N, C = ends). [ ]: non-standard residue; d: D form. Dab = NCC[C@H](N)C(=O)O
How the values were obtained:
[1] = test system: K. pneumoniae FDA-CDC AR 0034; assay: microbe, parasite or virus in culture; conditions: Klebsiella pneumoniae, read-out: MIC alone
[2] = test system: K. pneumoniae FDA-CDC AR 0044; assay: microbe, parasite or virus in culture; conditions: Klebsiella pneumoniae, read-out: MIC alone
[3] = test system: A. baumannii FDA-CDC AR 0070; assay: microbe, parasite or virus in culture; conditions: Acinetobacter baumannii, read-out: MIC alone
[4] = test system: A. baumannii FDA-CDC AR 0063; assay: microbe, parasite or virus in culture; conditions: Acinetobacter baumannii, read-out: MIC alone
[5] = test system: K. pneumoniae FDA-CDC AR 0097; assay: Time-kill kinetics in tryptic soy broth, alone and combined; format: cell-based, Klebsiella pneumoniae; conditions: K. pneumoniae AR 0097; TSB; analogues 4 μg/ml, antibiotics 1 μg/ml
Procedure: Bacterial viable counts were determined at 0, 2, 4, 6, and 24 h after antimicrobial treatment. Bacterial surviving counts at 24 h endpoints were subjected to analysis of variance (ANOVA) followed by Tukey's honest significant difference (HSD) tests using SPSS Statistics (version 24; SPSS, Inc., Chicago, Ill., USA).

[6] = test system: K. pneumoniae FDA-CDC AR 0080; assay: microbe, parasite or virus in culture; conditions: Klebsiella pneumoniae, read-out: MIC alone
[7] = test system: K. pneumoniae FDA-CDC AR 0097; assay: microbe, parasite or virus in culture; conditions: Klebsiella pneumoniae, read-out: MIC alone
[8] = test system: A. baumannii FDA-CDC AR 0037; assay: microbe, parasite or virus in culture; conditions: Acinetobacter baumannii, read-out: MIC alone
[9] = test system: A. baumannii FDA-CDC AR 0052; assay: microbe, parasite or virus in culture; conditions: Acinetobacter baumannii, read-out: MIC alone
[10] = test system: A. baumannii FDA-CDC AR 0083; assay: microbe, parasite or virus in culture; conditions: Acinetobacter baumannii, read-out: MIC alone
[11] = test system: K. pneumoniae FDA-CDC AR 0068; assay: microbe, parasite or virus in culture; conditions: Klebsiella pneumoniae, read-out: MIC alone
[12] = test system: A. baumannii FDA-CDC AR 0083
[13] = test system: K. pneumoniae FDA-CDC AR 0068
[14] = test system: K. pneumoniae FDA-CDC AR 0097
[15] = test system: K. pneumoniae FDA-CDC AR 0034
[16] = test system: 10 carbapenem-resistant strains; conditions: all 10 tested strains
[17] = test system: A. baumannii FDA-CDC AR 0052
[18] = test system: K. pneumoniae FDA-CDC AR 0044
[19] = test system: A. baumannii FDA-CDC AR 0063
[20] = test system: A. baumannii FDA-CDC AR 0070
[21] = test system: K. pneumoniae FDA-CDC AR 0080
[22] = test system: A. baumannii FDA-CDC AR 0037

MIC [1]: > 32 µg/mL
MIC [2]: > 32 µg/mL
MIC [3]: 2 to 4 µg/mL (≈ 2.67 to 5.35 µM)
MIC [4]: 16 to 32 µg/mL (≈ 21.4 to 42.8 µM)
MIC [6]: > 32 µg/mL
MIC [7]: > 32 µg/mL
MIC [8]: 16 µg/mL (≈ 21.4 µM)
MIC [9]: 4 µg/mL (≈ 5.35 µM)
MIC [10]: > 32 µg/mL
MIC [11]: > 32 µg/mL
SMILES: CC[C@H]1OC(=O)[C@H](C)[C@@H](O[C@H]2C[C@@](C)(OC)[C@@H](O)[C@H](C)O2)[C@H](C)[C@@H](O[C@@H]2O[C@H](C)C[C@H](N(C)C)[C@H]2O)[C@](C)(OC)C[C@@H](C)C(=O)[C@H](C)[C@@H](O)[C@]1(C)O [clarithromycin]
bactericidal activity, single agent (in words) [5]: not bactericidal

SMILES: CC(C)C[C@@H]1NC(=O)[C@@H](Cc2ccccc2)NC(=O)[C@H](CCN)NC(=O)[C@@H](NC(=O)[C@H](CCN)NC(=O)[C@@H](N)[C@@H](C)O)CCNC(=O)[C@H]([C@@H](C)O)NC(=O)[C@H](CCN)NC(=O)[C@H](CCN)NC1=O [polymyxin B nonapeptide, reference compound] (H-T[Dab][Dab][Dab][dF]L[Dab][Dab]T; lactam 3-C (inferred); N-terminus assumed)
MIC of clarithromycin at the presence of PMBN or paenipeptin analogue at 4 μg/ml ([12]; A. baumannii AR 0083): 32 μg/ml
MIC of rifampicin at the presence of PMBN or paenipeptin analogue at 4 μg/ml ([12]; A. baumannii AR 0083): 8 μg/ml
MIC alone ([12]; FDA-CDC AR 0083): >32 µg/mL
MIC alone ([13]; FDA-CDC AR 0068): >32 µg/mL
MIC of clarithromycin at the presence of PMBN or paenipeptin analogue at 4 μg/ml ([13]; K. pneumoniae AR 0068): >32 μg/ml
MIC of rifampicin at the presence of PMBN or paenipeptin analogue at 4 μg/ml ([13]; K. pneumoniae AR 0068): 2-8 μg/ml
MIC alone ([14]; FDA-CDC AR 0097): >32 µg/mL
MIC of clarithromycin at the presence of PMBN or paenipeptin analogue at 4 μg/ml ([14]; K. pneumoniae AR 0097): 32 μg/ml
MIC of rifampicin at the presence of PMBN or paenipeptin analogue at 4 μg/ml ([14]; K. pneumoniae AR 0097): 16 μg/ml
MIC alone ([15]; FDA-CDC AR 0034): >32 µg/mL
MIC of clarithromycin at the presence of PMBN or paenipeptin analogue at 4 μg/ml ([15]; K. pneumoniae AR 0034): >32 μg/ml
MIC of rifampicin at the presence of PMBN or paenipeptin analogue at 4 μg/ml ([15]; K. pneumoniae AR 0034): 1 μg/ml
MIC alone [16]: > 32 µg/mL
MIC of clarithromycin at the presence of PMBN or paenipeptin analogue at 4 μg/ml ([17]; A. baumannii AR 0052): 0.0313-0.0625 μg/ml
MIC of rifampicin at the presence of PMBN or paenipeptin analogue at 4 μg/ml ([17]; A. baumannii AR 0052): 0.0625-0.125 μg/ml
MIC alone ([17]; FDA-CDC AR 0052): >32 µg/mL
MIC alone ([18]; FDA-CDC AR 0044): >32 µg/mL
MIC of clarithromycin at the presence of PMBN or paenipeptin analogue at 4 μg/ml ([18]; K. pneumoniae AR 0044): 4 μg/ml
MIC of rifampicin at the presence of PMBN or paenipeptin analogue at 4 μg/ml ([18]; K. pneumoniae AR 0044): 2 μg/ml
MIC of clarithromycin at the presence of PMBN or paenipeptin analogue at 4 μg/ml ([19]; A. baumannii AR 0063): 0.5-1 μg/ml
MIC of rifampicin at the presence of PMBN or paenipeptin analogue at 4 μg/ml ([19]; A. baumannii AR 0063): 0.125 μg/ml
MIC alone ([19]; FDA-CDC AR 0063): >32 µg/mL
MIC of clarithromycin at the presence of PMBN or paenipeptin analogue at 4 μg/ml ([20]; A. baumannii AR 0070): 0.25-0.5 μg/ml
MIC of rifampicin at the presence of PMBN or paenipeptin analogue at 4 μg/ml ([20]; A. baumannii AR 0070): 0.0625-0.125 μg/ml
MIC alone ([20]; FDA-CDC AR 0070): >32 µg/mL
MIC alone ([21]; FDA-CDC AR 0080): >32 µg/mL
MIC of clarithromycin at the presence of PMBN or paenipeptin analogue at 4 μg/ml ([21]; K. pneumoniae AR 0080): 4 μg/ml
MIC of rifampicin at the presence of PMBN or paenipeptin analogue at 4 μg/ml ([21]; K. pneumoniae AR 0080): >32 μg/ml
MIC of clarithromycin at the presence of PMBN or paenipeptin analogue at 4 μg/ml ([22]; A. baumannii AR 0037): 0.125-0.25 μg/ml
MIC of rifampicin at the presence of PMBN or paenipeptin analogue at 4 μg/ml ([22]; A. baumannii AR 0037): 0.25 μg/ml
MIC alone ([22]; FDA-CDC AR 0037): >32 µg/mL

Source: patent US11364275B2, “Linear lipopeptide paenipeptins and methods of using the same” (priority 2017, dated 2022)
